Experimental data published in patent US20150105383A1, “HDAC Inhibitors, Alone Or In Combination With PI3K Inhibitors, For Treating Non-Hodgkin's Lymphoma” (Acetylon Pharmaceuticals, Inc., priority 2013, published 2015).
Entries after “also recorded” stand apart in the source; their conditions may differ.

Tests used:
[1] = system: Jeko1 or Mino lymphoma cells; test: Apoptosis by flow cytometry, statements for the cell lines together; format: cell-based, human; conditions: 4 days; for cellular apoptosis: Compound A or B plus a PI3Ki, lymphoma cells; for apoptosis / percentage of apoptotic cells: Jeko1 or Mino, relative to control cells (DMSO), Compound A or B 2-3 μM, GDC-0941 0.075-2 μM, CAL-101 2 μM
Experimental: Jeko1 (FIG. 4A and FIG. 4B) or Mino (FIG. 4C) lymphoma cells were exposed to drug for 4 days, and apoptosis was assessed by flow cytometry by measuring Annexin V binding and cellular permeability to propidium iodide. The relative fraction of cells that were live, in early apoptosis, in late apoptosis, or dead was then estimated. The cells were treated with DMSO, Compound A or B (2-3 μM), GDC-0941 (0.075-2 μM), or the combination of Compound A or B (2-3 μM) with GDC-0941 (0.075-2 μM) on the induction of apoptosis. Alternatively, cells were treated with DMSO, Compound A or B (2 μM), CAL-101 (2 μM), or the combination of Compound A or B (2 μM) with CAL-101 (2 μM) before measuring induction of apoptosis.

[2] = system: Jeko1, Mino or Granta-519 lymphoma cells; test: Cell cycle distribution by flow cytometry, statements for all cell lines together; format: cell-based, human; conditions: Compound A or B 2 μM and/or PI3K inhibitor, 4 days
Experimental: The relative fraction of cells in each stage of the cell cycle (G0/G1, S, and G2/M), as well as the fraction of dead cells (Sub G1) was then estimated. Cells were treated with DMSO, Compound A or B (2 μM), GDC-0941 (0.075-0.5 μM), or the combination of Compound A or B (2 μM) with GDC-0941 (0.075-0.5 μM) on cell cycle inhibition. Alternatively, cells were treated with DMSO, Compound A or B (2 μM), CAL-101 (1-2 μM), or the combination of Compound A or B (2 μM) with CAL-101 (1-2 μM) before measuring effects on cell cycle inhibition.

[3] = system: Mino, Jeko1, Granta-519, U2932 and SUDHL16 cells; test: MTS cell viability, dose-matrix combination of HDAC6 inhibitor and PI3K inhibitor (Fa-CI, Chou-Talalay); format: cell-based, human; conditions: HDAC6 inhibitor in combination with a PI3K inhibitor (GDC-0941 or GS-1101/CAL-101), 48 hr
Experimental: Human lymphoma cell lines were selected that represented the most common subtypes of NHL. For Mantle Cell Lymphoma (MCL) Mino, Jeko1, and Granta-519 cells were utilized, while U2932 and SUDHL16 cells represented the activated B cell (ABC) and germinal center (GC) subtypes of diffuse large B cell lymphoma (DLBCL), respectively. Briefly, cells were seeded in 384-well plates and treated in quadruplicate in a dose-matrix format with an HDAC6 inhibitor (Compound A, Compound B, or Compound C) in combination with a PI3K inhibitor (GDC-0941 or GS-1101/CAL-101). After incubating these cells for 48 hr, total cell viability was assessed via an MTS assay (Aqueous One, Promega). The fraction affected (Fa) was subsequently determined for each dose combination and the combination index (CI) was assessed using the method of Chou-Talay.

[4] = relative to start of dosing; GDC-0941 100 mg/kg PO QD, Compound A 30 mg/kg IP QD; five days per week for 3 cycles
Experimental: Percent body weight change was determined relative to the start of dosing, and the mean change±SD was plotted. All treatments were dosed five days per week for 3 cycles.

Row | SMILES | cellular apoptosis [1] | apoptosis / percentage of apoptotic cells [1] | cell cycle progression [2] | synergy in decreasing lymphoma cell viability [3] | body weight change [4]
1 | O=C(CCCCCCNC(=O)c1cnc(N(c2ccccc2)c2ccccc2)nc1)NO [Compound A, 2-(diphenylamino)-N-(7-(hydroxyamino)-7-oxoheptyl) pyrimidine-5-carboxamide] | synergistic increases in cellular apoptosis | small increase in apoptosis relative to control cells | decreased cell cycle progression | synergistic decreases in lymphoma cell viability | 
2 | O=C(CCCCCCNC(=O)c1cnc(N(c2ccccc2)c2ccccc2Cl)nc1)NO [Compound B, 2-((2-chlorophenyl)(phenyl)amino)-N-(7-(hydroxyamino)-7-oxoheptyl)pyrimidine-5-carboxamide] | synergistic increases in cellular apoptosis | small increase in apoptosis relative to control cells | decreased cell cycle progression | synergistic decreases in lymphoma cell viability | 
3 | O=C(NO)c1cnc(NC2(c3cccc(F)c3)CCCCC2)nc1 [Compound C, 2-((1-(3-fluorophenyl)cyclohexyl)amino)-N-hydroxypyrimidine-5-carboxamide] |  |  |  | synergistic decreases in lymphoma cell viability | 
4 | CS(=O)(=O)N1CCN(Cc2cc3nc(-c4cccc5[nH]ncc45)nc(N4CCOCC4)c3s2)CC1 [GDC-0941, 2-(1H-indazol-4-yl)-6-(4-methanesulfonyl-piperazin-1-ylmehtyl)-4-morpholin-4-yl-thienol[3,2-d]pyrimidine] |  | did not result in increased cell death |  |  | complete recovery after minimal body weight loss; also recorded: low level body weight loss was recovered by the end of the treatment period
